The values that follow come from US6693174B2, “Gene regulating aureobasidin sensitivity” (Takara Shuzo Co., Ltd., priority 1993, dated 2004).

The test system of data set [1] is A. nidulans FGSC89 aureobasidin resistant colonies. Put plainly: Drug resistance of aureobasidin resistant mutants of A. nidulans. The settings on record: for sensitivities of the resistant cells compared with the parent strain: UV-induced resistant colonies vs FGSC89.
The test system of another data set is Exophiala werneckii. The settings on record: Exophiala werneckii TIMM No. 1334; cited from earlier work.
The test system of the next data set is Fonsecaea pedrosoi. To be noted: Fonsecaea pedrosoi TIMM No. 0482; cited from earlier work.
For another data set, the system named is Cr. terreus. To be noted: Cr. terreus TIMM No. 0424; cited from earlier work.
The next data set has as its system C. guilliermondii. The settings on record: C. guilliermondii TIMM No. 0257; cited from earlier work.
Data set [2] deals with C. albicans TIMM0136 transformants. In words: MIC for C. albicans transformants obtained with SalI-linearized pUscaur1R-C. To be noted: C. albicans TIMM0136 transformants by SalI-linearized pUscaur1R-C. The class given is cell-based, Candida albicans. On the procedure: 14-a) 5 μg of a linear plasmid, which had been prepared by cleaving pUscaur1^R-C with SalI capable of cleaving at one point in the pUC119 region, was transformed into C. albicans TIMM0136 by the lithium acetate method.

For data set [3], the system named is S. cerevisiae DKD5D resistant mutant clones. Put plainly: Resistance of aureobasidin resistant mutants of S. cerevisiae. The class given is cell-based, Saccharomyces cerevisiae. To be noted: 34 EMS mutant clones of DKD5D. The procedure: (§1) Then resistant mutants were separated on an agar plate of a complete nutritional medium YPD (1% of yeast extract, 2% of polypeptone, 2% of glucose) containing 5 μg/ml or 1.5 μg/ml of aureobasidin A. After repeating the mutagenesis several times, 34 mutant clones were obtained.

Data set [4] deals with Sake yeast Kyokai K-701 transformants. Put plainly: Aureobasidin A resistance of sake yeast transformants obtained with StuI-linearized plasmids. The settings on record: transformants by StuI-linearized plasmids, after subculture over several generations.
In the next data set the test system is A. clavatus. To be noted: A. clavatus TIMM No. 0056; cited from earlier work.
Another data set concerns C. krusei. To be noted: C. krusei TIMM No. 0270; cited from earlier work.
For the next data set, the system named is Epidermophyton floccosum. To be noted: Epidermophyton floccosum TIMM No. 0431; cited from earlier work.
A further data set deals with mouse lymphoma L5178Y. In words: MIC of aureobasidin, test strain or cell (Table 3). The class given is cell-based.
Data set [5] relates to C. albicans var. stellatoidea. To be noted: C. albicans var. stellatoidea TIMM No. 1308; cited from earlier work.
The test system of another data set is C. parapsilosis. To be noted: C. parapsilosis TIMM No. 0287; cited from earlier work.
The next data set deals with Blastomyces dermatitidis. The settings on record: Blastomyces dermatitidis TIMM No. 0126; cited from earlier work.
In the next data set the test system is C. albicans. The settings on record: C. albicans TIMM No. 0136; cited from earlier work.
A further data set has as its system C. kefyr. The settings on record: C. kefyr TIMM No. 0298; cited from earlier work.
Another data set concerns mouse lymphoma EL-4. In words: MIC of aureobasidin, test strain or cell (Table 3). The class given is cell-based.
For another data set, the system named is A. terreus. To be noted: A. terreus TIMM No. 0120; cited from earlier work.
The test system of the next data set is C. glabrata. To be noted: C. glabrata TIMM No. 1062; cited from earlier work.
Data set [6] deals with Sake yeast Kyokai K-701/pAUR1. In words: Aureobasidin sensitivity of transformant after subculture without aureobasidin A. The settings on record: K-701/pAUR1 vs Sake yeast Kyokai K-701.
The test system of another data set is Cladosporium bantianum. To be noted: Cladosporium bantianum TIMM No. 0343; cited from earlier work.
In another data set the test system is A. nidulans. To be noted: A. nidulans TIMM No. 0112; cited from earlier work.
Data set [7] has as its system Schizo. pombe diploid cells (resistant strains x LH121). Put plainly: Resistance of diploids formed by crossing resistant strains with normal strain LH121. The class given is cell-based, Schizosaccharomyces pombe. The settings on record: five diploids, resistant strains crossed with LH121.
In the next data set the test system is Geotrichum candidum. The settings on record: Geotrichum candidum TIMM No. 0694; cited from earlier work.
Data set [8] deals with Paracoccidioides brasiliensis. The settings on record: Paracoccidioides brasiliensis TIMM No. 0880; cited from earlier work.
A further data set deals with NRK-49F. Put plainly: MIC of aureobasidin, test strain or cell (Table 3). The class given is cell-based.
For a further data set, the system named is Schizo. pombe. In words: MIC of aureobasidin, test strain or cell (Table 3). The class given is cell-based, Schizosaccharomyces pombe.
The subject of another data set is Rhodotorula rubra. The settings on record: Rhodotorula rubra TIMM No. 0923; cited from earlier work.
A further data set deals with Histoplasma capsulatum. To be noted: cited from earlier work.
The conditions of data set [9]: cited from earlier work.
The test system of the next data set is S. cerevisiae. In words: MIC of aureobasidin, test strain or cell (Table 3). The class given is cell-based, Saccharomyces cerevisiae.
The test system of data set [10] is Schizo. pombe haploid cell strain JY745. In words: Sensitivity of parent strain to aureobasidin.
Another data set has as its system A. nidulans FGSC89. Put plainly: Sensitivity of parent strain to aureobasidin.
For data set [11] the following is noted: in contrast to existing antimycotics with only a fungistatic action; cited from earlier work.
In a further data set the test system is Penicillium commune. The settings on record: Penicillium commune TIMM No. 1331; cited from earlier work.
The subject of another data set is A. fumigatus. The settings on record: A. fumigatus TIMM No. 0063; cited from earlier work.
In data set [12] the test system is Sake yeast Kyokai K-701 transformants. In words: Aureobasidin A resistance of sake yeast transformants obtained with pYCscaur1R-C. The settings on record: transformants by pYCscaur1R-C, after subculture over several generations.
In data set [13] the test system is Trichophyton mentagrophytes. The settings on record: Trichophyton mentagrophytes TIMM No. 1189; cited from earlier work.
A further data set deals with Cr. neoformans. To be noted: Cr. neoformans TIMM No. 0354; cited from earlier work.
For a further data set, the system named is C. tropicalis. To be noted: C. tropicalis TIMM No. 0312; cited from earlier work.
For the next data set, the system named is S. cerevisiae DKD5D. In words: Sensitivity of parent strain to aureobasidin. The class given is cell-based, Saccharomyces cerevisiae. On the procedure:
as §1

In brackets after ≈: the same amount, converted by molar mass. *1 amine or outer side, *2 acyl side, *3 side chain or, on linkers, in order; H or OH if unused. Where a SMILES comes first, the peptide text is derived from it. [ ]: non-standard residue; d: D form. X1 = CC[C@@H](C)[C@@H](O[*:1])C(=O)[*:2]; NMeVal(β-OH) = CN[C@H](C(=O)O)C(C)(C)O; NMeF = CN[C@@H](Cc1ccccc1)C(=O)O; aIle = CC[C@@H](C)[C@H](N)C(=O)O; NMeV = CN[C@H](C(=O)O)C(C)C Bounds are passed on as bounds.

Turning to `C[C@@H]1C[C@@H]([C@H](O)CC2CC(=O)NC(=O)C2)C(=O)[C@@H](C)C1` [cycloheximide], in data set [1], the “sensitivities of the resistant cells compared with the parent strain” value (from here on “sensitivities … compared with the parent strain”) is given as “the same as the parent strain”.

In the case of `Clc1ccccc1C(c1ccccc1)(c1ccccc1)n1ccnc1` [clotrimazole], the “sensitivities … compared with the parent strain” value in data set [1] was “the same as the parent strain”.

Consider `C[C@@H]1[C@H](O)[C@@H](C)/C=C/C=C/C=C/C=C/C=C/C=C/C=C/[C@H](O[C@@H]2O[C@H](C)[C@@H](O)[C@H](N)[C@@H]2O)C[C@@H]2O[C@](O)(C[C@@H](O)C[C@@H](O)[C@H](O)CC[C@@H](O)C[C@@H](O)CC(=O)O[C@H]1C)C[C@H](O)[C@H]2C(=O)O` [amphotericin B], for which the “sensitivities … compared with the parent strain” value in [1] is given as “the same as the parent strain”.

`CC[C@@H](C)[C@@H]1NC(=O)[C@@H]2CCCN2C(=O)[C@H](Cc2ccccc2)N(C)C(=O)[C@H](Cc2ccccc2)NC(=O)[C@H](C(C)C)N(C)C(=O)[C@@H]([C@H](C)CC)OC(=O)[C@H](C(C)(C)O)N(C)C(=O)[C@H](CC(C)C)NC(=O)[C@H](C(C)C)N(C)C1=O` [aureobasidin A] (cyclo(F[NMeF]P[aIle][NMeV]L[NMeVal(β-OH)][X1][NMeV])): the minimum inhibitory concentration (MIC) – broadly, the smallest concentration in the dilution series that meets the test's criterion for growth inhibition – with Exophiala werneckii is 1.25 µg/mL (≈ 1.13 µM); in the data set with Fonsecaea pedrosoi, 0.31 µg/mL (≈ 0.281 µM); with Cr. terreus it was 0.31 µg/mL (≈ 0.281 µM); in the data set on C. guilliermondii it was 0.08 µg/mL (≈ 0.0726 µM); in data set [2] it was at least 10 µg/mL; with A. clavatus, 0.16 µg/mL (≈ 0.145 µM). Also, the MIC result in the data set on C. krusei is “≦0.04 μg/ml”; in the data set on Epidermophyton floccosum, 2.5 µg/mL (≈ 2.27 µM); in the data set on mouse lymphoma L5178Y, 100 µg/mL; in data set [5] it was “≦0.04 μg/ml”; in the data set on C. parapsilosis, 0.16 µg/mL (≈ 0.145 µM); in the data set on Blastomyces dermatitidis it was 0.31 µg/mL (≈ 0.281 µM). Also, the MIC entry with C. albicans is “≦0.04 μg/ml”; in the data set with C. kefyr, 0.16 µg/mL (≈ 0.145 µM); with mouse lymphoma EL-4 it was 10 µg/mL; in the data set on A. terreus, 5 µg/mL (≈ 4.54 µM); with C. glabrata it was “≦0.04 μg/ml”; in the data set on Cladosporium bantianum it was 0.63 µg/mL (≈ 0.572 µM). The MIC with A. nidulans was 0.16 µg/mL (≈ 0.145 µM); in the data set on Geotrichum candidum it was 0.63 µg/mL (≈ 0.572 µM); in [8] it was 0.31 µg/mL (≈ 0.281 µM); in the data set with NRK-49F it was 12.5 µg/mL; with Schizo. pombe it was 0.08 µg/mL; with Rhodotorula rubra it was 0.63 µg/mL (≈ 0.572 µM). The MIC in the data set on Histoplasma capsulatum is 0.16 µg/mL (≈ 0.145 µM); in the data set with S. cerevisiae, 0.31 µg/mL; in the data set on Penicillium commune, 1.25 µg/mL (≈ 1.13 µM); with A. fumigatus, 20 µg/mL (≈ 18.2 µM); in data set [13], 10 µg/mL (≈ 9.08 µM); in the data set on Cr. neoformans, 0.63 µg/mL (≈ 0.572 µM). The MIC with C. tropicalis is 0.08 µg/mL (≈ 0.0726 µM). Besides, the “resistant to (concentration of aureobasidin A)” value is “more than 25 μg/ml” in data set [3] and 25 µg/mL in data set [7]. Further, the “aureobasidin A resistance relative to the parent strain” value in data set [4] and in [12] was “at least 10 times” each time. The “resistance to (concentration of aureobasidin)” value in [1] (eight UV-induced resistant colonies) turned out to be 80 µg/mL. Further, the “aureobasidin resistance relative to the parent strain” value in data set [6] is reported as “eight times”. Besides, the toxicity in mammal result in data set [9] is “extremely low toxicity”. For the same molecule, the “sensitivity to aureobasidin at a concentration of” value came to 0.08 µg/mL in data set [10] and 0.31 µg/mL in the data set with S. cerevisiae DKD5D. In the data set with A. nidulans FGSC89, the “sensitivity to aureobasidin at” value is 5 µg/mL. Also, the “action (germicidal versus fungistatic)” value in data set [11] is recorded as “germicidal action”.
